Reference: ChEMBL document CHEMBL3638596, “Protease inhibitors” (2014)

Assays:
Cathepsin K = target: T1, Cathepsin K (Homo sapiens, UniProt P43235); assay: Enzyme Assay: Standard assay conditions for the determination of kinetic constants used a fluorogenic peptide substrate, typically H-D-Ala-Leu-Lys-AMC, and were determined in either 100 mM Mes/Tris, pH 7.0 containing 1 mM EDTA and 10 mM 2-mercaptoethanol or 100 mM Na phosphate, imM EDTA, 0.1% PEG4000 pH 6.5 or 100 mM Na acetate, pH 5.5 containing 5 mM EDTA and 20 mM cysteine, in each case optionally with […] as stabiliser. The enzyme concentration used was 5 nM. The stock substrate solution was prepared at 10 mM in DMSO. Screens were carried out at a fixed substrate concentration of 60 μM and detailed kinetic studies with doubling dilutions of substrate from 250 μM. The total DMSO concentration in the assay was kept below 3%. All assays were conducted at ambient temperature. Product fluorescence (excitation at 390 nm, emission at 460 nm) was monitored with a Labsystems Fluoroskan Ascent fluorescent plate reader.
T1 sequence (P43235 whole entry): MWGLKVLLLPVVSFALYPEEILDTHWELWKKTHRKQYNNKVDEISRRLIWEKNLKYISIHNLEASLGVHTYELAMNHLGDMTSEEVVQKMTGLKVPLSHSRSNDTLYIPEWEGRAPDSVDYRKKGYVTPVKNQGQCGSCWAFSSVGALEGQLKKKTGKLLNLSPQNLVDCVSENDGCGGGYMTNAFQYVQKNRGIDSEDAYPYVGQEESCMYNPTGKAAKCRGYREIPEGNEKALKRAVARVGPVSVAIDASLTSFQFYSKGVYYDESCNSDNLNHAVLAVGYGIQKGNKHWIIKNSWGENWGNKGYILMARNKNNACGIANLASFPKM

Cathepsin S = Cathepsin S (Homo sapiens, UniProt P25774); assay: Enzyme Assay: The assay uses baculovirus-expressed human cathepsin S and the boc-Val-Leu-Lys-AMC fluorescent substrate available from Bachem in a 384 well plate format, in which 7 test compounds can be tested in parallel with a positive control comprising a known cathepsin S inhibitor comparator. […] 2 μl of each 10 mM test compound is added to a separate well on row A, columns 1-10. Add 90 μl assay buffer containing 1 mM DTT and 2 nM cathepsin S to each well of rows B-H and 180 μl to row A.
Chain of Cathepsin S (P25774 whole entry): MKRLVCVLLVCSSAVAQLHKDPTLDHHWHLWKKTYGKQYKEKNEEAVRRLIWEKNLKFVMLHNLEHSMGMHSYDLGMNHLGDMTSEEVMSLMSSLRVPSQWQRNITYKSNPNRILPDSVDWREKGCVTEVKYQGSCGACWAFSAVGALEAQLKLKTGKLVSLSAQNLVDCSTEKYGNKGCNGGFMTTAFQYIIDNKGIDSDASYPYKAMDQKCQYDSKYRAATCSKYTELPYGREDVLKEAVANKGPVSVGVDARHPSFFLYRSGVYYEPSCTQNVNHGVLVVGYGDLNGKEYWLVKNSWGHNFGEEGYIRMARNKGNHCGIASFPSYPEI

Ki (Cathepsin K): 0.6 nM
Ki (Cathepsin S): 2900 nM
SMILES: C#C[C@@H]1CN(C(=O)[C@@H](NC(=O)c2ccc(-c3nc(N4CCN(C)CC4)sc3F)cc2)C2CCCC2)[C@@H]2C(=O)CO[C@H]12
